Data reported in patent US20200253907A1, “Compositions and Methods for Treating Neurodegenerative Diseases” (The Regents of the University of California, priority 2017, published 2020).
Entries after “also recorded” stand apart in the source; their conditions may differ.

Key:
[1] = system: GMC101 C. elegans strain; assay: Paralysis assay in GMC101 C. elegans model of Alzheimer's disease; type: in vivo; conditions: for GMC101 paralysis: 4 mM, FIG. 3; for paralysis caused by Aβ: single agent, FIG. 4 (alanine 1-8 mM), FIG. 5 (KIC 2-32 mM)
Experimental: To investigate the effects of small molecules in a C. elegans model of Alzheimer's disease, the GMC101 C. elegans strain, developed by Gawain McColl at the University of Melbourne, Australia, was used. The GMC101 C. elegans strain expresses the full length human amyloid beta 1-42 protein in the body wall muscle cells, leading to a fully penetrant age-progressive paralysis. These worms were first age-synchronized by performing an egg prep (mixed <100 gravid worms in 70 μl M9 buffer, 25 μl bleach and 5 μl 10 N NaOH). […] All worms were transferred to fresh plates on Day 5.

[2] = system: differentiated PC-12 cells; assay: Amyloid-beta induced cell death in differentiated PC-12 cells; type: cell-based; conditions: 200 μM, pretreated 2 hours before Aβ42 or Aβ25-35; 24-hour incubation; control cells 48.5±1.8%; FIG. 16
Description: Overnight after seeding, cells were differentiated with NGF in 0.5% FCS, RPMI 1640 medium for 7 days.

SMILES: CC[C@H](O)C(=O)O [2-HB, 2-hydroxybutyrate]
- GMC101 paralysis [1]: can also delay GMC101 paralysis

SMILES: O=C(O)CCC(=O)C(=O)O [α-KG, α-ketoglutarate]
- health span of GMC101 C. elegans strain ([1]; 2 mM, FIG. 1): can extend the health span
- delay of paralysis compared to vehicle treatment ([1]; 8 mM on NGM plates, worms shifted to 25° C.): 22%

SMILES: CC(C)C(=O)C(=O)O [KIV, α-ketoisovalerate]
- GMC101 health span ([1]; 8 mM, FIG. 6): can extend GMC101 health span

SMILES: CC(C)CC(=O)C(=O)O [KIC, α-ketoisocaproate]
- beneficial effect in GMC101 (paralysis) ([1]; 16 mM KIC alone): not observed to exhibit beneficial effects; also recorded: does not exert a beneficial effect
- paralysis caused by Aβ [1]: reduces paralysis caused by Aβ

SMILES: CCCCCCCCOC(=O)C(=O)CCC(=O)O [octyl α-KG, octyl α-ketoglutarate]
- cells remaining alive (viable) [2]: about 73±2.2%

SMILES: CCC(=O)C(=O)O [α-KB, α-ketobutyrate]
- Aβ caused paralysis ([1]; about 2 mM, FIG. 2): can delay Aβ caused paralysis

SMILES: CC(O)CC(=O)O (stereo not shown) [3-HB, 3-hydroxybutyrate, reference compound]
- GMC101 paralysis [1]: delay in paralysis is not observed

SMILES: C[C@H](N)C(=O)O [alanine, L-alanine]
- health span of GMC101 ([1]; 2 mM alanine alone, FIG. 9): can extend health span of GMC101
- health span of GMC101 ([1]; 4 mM alanine alone, FIG. 10): can extend health span of GMC101
- health span of GMC101 ([1]; 8 mM alanine alone, FIG. 11): can extend health span of GMC101
- paralysis caused by Aβ [1]: can reduce paralysis caused by Aβ
